Assay results from ChEMBL document CHEMBL3046389, “Synthesis and biological evaluation of novel hydroquinone dimethyl ethers as potential anticancer and antimicrobial agents” (2013).
≈ marks a conversion by molar mass, not a printed value.

Experiments:
Type in all cases: functional
RPMI-8226 = test: Anticancer activity against Homo sapiens (human) RPMI8226 cells after 48 hr by SRB assay; conditions: RPMI-8226, 48 h
K562 = test: Anticancer activity against Homo sapiens (human) K562 cells after 48 hr by SRB assay; conditions: K562, 48 h
HL-60(TB) = test: Anticancer activity against Homo sapiens (human) HL-60(TB) cells after 48 hr by SRB assay; conditions: HL-60, 48 h
NCI-H460 = test: Growth inhibition of Homo sapiens (human) NCI-H460 cells at 10 uM after 48 hr by SRB assay; conditions: NCI-H460, 48 h, read-out: GI
CCRF-CEM [1] = test: Anticancer activity against Homo sapiens (human) CCRF-CEM cells after 48 hr by SRB assay
MCF7 = test: Growth inhibition of Homo sapiens (human) MCF7 cells at 10 uM after 48 hr by SRB assay; conditions: MCF7, 48 h, read-out: GI
PC-3 = test: Growth inhibition of Homo sapiens (human) PC3 cells at 10 uM after 48 hr by SRB assay; conditions: PC-3, 48 h, read-out: GI
SN12C = test: Growth inhibition of Homo sapiens (human) SN12C cells at 10 uM after 48 hr by SRB assay; conditions: read-out: GI
Pseudomonas aeruginosa = test: Antimicrobial activity against Pseudomonas aeruginosa ATCC 10145 after 48 hr by two-fold serial broth dilution method; conditions: ATCC 10145, 48 h
U-251 = test: Anticancer activity against Homo sapiens (human) U251 cells after 48 hr by SRB assay; conditions: U-251, 48 h
SNB-75 = test: Anticancer activity against Homo sapiens (human) SNB75 cells after 48 hr by SRB assay; conditions: SNB-75, 48 h
SF-539 = test: Anticancer activity against Homo sapiens (human) SF539 cells after 48 hr by SRB assay; conditions: SF-539, 48 h
SF-268 = test: Anticancer activity against Homo sapiens (human) SF268 cells after 48 hr by SRB assay; conditions: SF-268, 48 h
COLO 205 = test: Anticancer activity against Homo sapiens (human) COLO205 cells after 48 hr by SRB assay; conditions: COLO 205, 48 h
A549 = test: Growth inhibition of Homo sapiens (human) A549/ATCC cells at 10 uM after 48 hr by SRB assay; conditions: A549, 48 h, read-out: GI
CCRF-CEM [2] = test: Growth inhibition of Homo sapiens (human) CCRF-CEM cells at 10 uM after 48 hr by SRB assay; conditions: read-out: GI
MDA-MB-468 = test: Anticancer activity against Homo sapiens (human) MDA-MB-468 cells after 48 hr by SRB assay; conditions: MDA-MB-468, 48 h
Hs-578T = test: Anticancer activity against Homo sapiens (human) Hs 578T cells after 48 hr by SRB assay
DU-145 = test: Anticancer activity against Homo sapiens (human) DU145 cells after 48 hr by SRB assay; conditions: DU-145, 48 h
TK-10 = test: Anticancer activity against Homo sapiens (human) TK10 cells after 48 hr by SRB assay; conditions: TK-10, 48 h
RXF 393 [3] = test: Anticancer activity against Homo sapiens (human) RXF393 cells after 48 hr by SRB assay; conditions: RXF 393, 48 h
RXF 393 [4] = test: Growth inhibition of Homo sapiens (human) RXF393 cells at 10 uM after 48 hr by SRB assay; conditions: RXF 393, 48 h, read-out: GI
ACHN = test: Growth inhibition of Homo sapiens (human) ACHN cells at 10 uM after 48 hr by SRB assay; conditions: read-out: GI
OVCAR-3 [5] = test: Anticancer activity against Homo sapiens (human) OVCAR3 cells after 48 hr by SRB assay; conditions: OVCAR-3, 48 h
IGROV-1 = test: Anticancer activity against Homo sapiens (human) IGROV1 cells after 48 hr by SRB assay; conditions: IGROV-1, 48 h
Escherichia coli = test: Antimicrobial activity against Escherichia coli ATCC 11775 after 48 hr by two-fold serial broth dilution method; conditions: ATCC 11775, 48 h
Bacillus subtilis = test: Antimicrobial activity against Bacillus subtilis ATCC 6633 after 48 hr by two-fold serial broth dilution method; conditions: ATCC 6633, 48 h
OVCAR-3 [6] = test: Growth inhibition of Homo sapiens (human) OVCAR3 cells at 10 uM after 48 hr by SRB assay; conditions: OVCAR-3, 48 h, read-out: GI
MDA-MB-435 = test: Growth inhibition of Homo sapiens (human) MDA-MB-435 cells at 10 uM after 48 hr by SRB assay; conditions: MDA-MB-435, 48 h, read-out: GI
M14 = test: Growth inhibition of Homo sapiens (human) M14 cells at 10 uM after 48 hr by SRB assay; conditions: M14, 48 h, read-out: GI
SF-295 = test: Growth inhibition of Homo sapiens (human) SF295 cells at 10 uM after 48 hr by SRB assay; conditions: SF-295, 48 h, read-out: GI
SW-620 = test: Growth inhibition of Homo sapiens (human) SW620 cells at 10 uM after 48 hr by SRB assay; conditions: SW-620, 48 h, read-out: GI
KM12 = test: Growth inhibition of Homo sapiens (human) KM12 cells at 10 uM after 48 hr by SRB assay; conditions: KM12, 48 h, read-out: GI
HT-29 = test: Growth inhibition of Homo sapiens (human) HT-29 cells at 10 uM after 48 hr by SRB assay; conditions: HT-29, 48 h, read-out: GI
[7] = read-out: LC50 (the source's name)

Question: With `COc1ccc(OC)c(/C=C/C(=O)N/N=C/c2ccc(Cl)cc2)c1` as the molecule, how does the GI50 (RPMI-8226) read?
Answer: 300 nM

Question: What about the TGI (RPMI-8226) of the same molecule?
Answer: 15700 nM

Question: What about the CC50 (RPMI-8226; [7]) of the same molecule?
Answer: > 100000 nM

Question: And the GI50 (K562)?
Answer: 48.8 nM

Question: And the TGI (K562)?
Answer: > 100000 nM

Question: What about the CC50 (K562; [7]) of the same molecule?
Answer: > 100000 nM

Question: And the GI50 (HL-60(TB))?
Answer: 78.5 nM

Question: What about the TGI (HL-60(TB)) of the same molecule?
Answer: 483 nM

Question: And the CC50 (HL-60(TB); [7])?
Answer: > 100000 nM

Question: And the inhibition of growth at 10 µM (NCI-H460)?
Answer: 94.8%

Question: What about the GI50 (CCRF-CEM [1]) of the same molecule?
Answer: 228 nM

Question: And the TGI (CCRF-CEM [1])?
Answer: > 100000 nM

Question: And the CC50 (CCRF-CEM [1]; [7])?
Answer: > 100000 nM

Question: What about the inhibition of growth at 10 µM (MCF7) of the same molecule?
Answer: 91.1%

Question: And the inhibition of growth at 10 µM (PC-3)?
Answer: 73.8%

Question: And the inhibition of growth at 10 µM (SN12C)?
Answer: 53.8%

Question: And the MBC (Pseudomonas aeruginosa)?
Answer: 50 µg/mL (≈ 145 µM)

Question: And the MIC (Pseudomonas aeruginosa)?
Answer: 50 µg/mL (≈ 145 µM)

Question: What about the GI50 (U-251) of the same molecule?
Answer: 184 nM

Question: And the TGI (U-251)?
Answer: 1490 nM

Question: What about the CC50 (U-251; [7]) of the same molecule?
Answer: > 100000 nM

Question: And the GI50 (SNB-75)?
Answer: 98 nM

Question: And the TGI (SNB-75)?
Answer: 1170 nM

Question: What about the CC50 (SNB-75; [7]) of the same molecule?
Answer: > 100000 nM

Question: What about the GI50 (SF-539) of the same molecule?
Answer: 258 nM

Question: And the TGI (SF-539)?
Answer: 3160 nM

Question: And the CC50 (SF-539; [7])?
Answer: > 100000 nM

Question: And the GI50 (SF-268)?
Answer: 718 nM

Question: What about the TGI (SF-268) of the same molecule?
Answer: > 100000 nM

Question: And the CC50 (SF-268; [7])?
Answer: > 100000 nM

Question: And the GI50 (COLO 205)?
Answer: 153 nM

Question: What about the TGI (COLO 205) of the same molecule?
Answer: 595 nM

Question: And the CC50 (COLO 205; [7])?
Answer: 63900 nM

Question: What about the inhibition of growth at 10 µM (A549) of the same molecule?
Answer: 72.2%

Question: And the inhibition of growth at 10 µM (CCRF-CEM [2])?
Answer: 86.3%

Question: What about the GI50 (MDA-MB-468) of the same molecule?
Answer: 142 nM

Question: And the TGI (MDA-MB-468)?
Answer: 445 nM

Question: What about the CC50 (MDA-MB-468; [7]) of the same molecule?
Answer: > 100000 nM

Question: And the GI50 (Hs-578T)?
Answer: 284 nM

Question: What about the TGI (Hs-578T) of the same molecule?
Answer: > 100000 nM

Question: What about the CC50 (Hs-578T; [7]) of the same molecule?
Answer: > 100000 nM

Question: And the GI50 (DU-145)?
Answer: 217 nM

Question: What about the TGI (DU-145) of the same molecule?
Answer: 8400 nM

Question: And the CC50 (DU-145; [7])?
Answer: > 100000 nM

Question: And the GI50 (TK-10)?
Answer: 691 nM

Question: And the TGI (TK-10)?
Answer: > 100000 nM

Question: What about the CC50 (TK-10; [7]) of the same molecule?
Answer: > 100000 nM

Question: What about the GI50 (RXF 393 [3]) of the same molecule?
Answer: 46.9 nM

Question: What about the LC50 (RXF 393 [3]) of the same molecule?
Answer: > 100000 nM

Question: And the TGI (RXF 393 [3])?
Answer: 298 nM

Question: And the inhibition of growth at 10 µM (RXF 393 [4])?
Answer: 120%

Question: What about the inhibition of growth at 10 µM (ACHN) of the same molecule?
Answer: 51.6%

Question: What about the GI50 (OVCAR-3 [5]) of the same molecule?
Answer: 33.5 nM

Question: What about the LC50 (OVCAR-3 [5]) of the same molecule?
Answer: > 100000 nM

Question: And the TGI (OVCAR-3 [5])?
Answer: 115 nM

Question: And the GI50 (IGROV-1)?
Answer: 187 nM

Question: What about the LC50 (50% lethal concentration) (IGROV-1) of the same molecule?
Answer: > 100000 nM

Question: And the TGI (IGROV-1)?
Answer: 62900 nM

Question: And the MBC (Escherichia coli)?
Answer: 100 µg/mL (≈ 290 µM)

Question: And the MIC (Escherichia coli)?
Answer: 50 µg/mL (≈ 145 µM)

Question: What about the MBC (Bacillus subtilis) of the same molecule?
Answer: 50 µg/mL (≈ 145 µM)

Question: And the MIC (Bacillus subtilis)?
Answer: 50 µg/mL (≈ 145 µM)

Question: And the inhibition of growth at 10 µM (OVCAR-3 [6])?
Answer: 143%

Question: And the inhibition of growth at 10 µM (MDA-MB-435)?
Answer: 132%

Question: What about the inhibition of growth at 10 µM (M14) of the same molecule?
Answer: 134%

Question: What about the inhibition of growth at 10 µM (SF-295) of the same molecule?
Answer: 68.2%

Question: And the inhibition of growth at 10 µM (SW-620)?
Answer: 80.1%

Question: What about the inhibition of growth at 10 µM (KM12) of the same molecule?
Answer: 82%

Question: What about the inhibition of growth at 10 µM (HT-29) of the same molecule?
Answer: 93.5%
